Results as given in publication PMC5456363 (PLoS ONE, 2017).
Blank lines part the entries; values can stand above or below the compound they belong to. Non-standard residues stand in square brackets, D forms with d. Residues, ends and D or L forms follow the SMILES beside them.

Key:
[1] = Peptide stability in commercial serum (CS); assay type: in vitro ADME, mouse
Experimental: (§1) All stability tests were performed at least in triplicates.

[2] = parameters: method as in PMID 27067364; details: 25% aqueous commercial serum; cited from earlier work
[3] = Stability and metabolites across fresh blood, serum and plasma (all six matrices); details: for Overall stability / Sequential stability: fresh blood, serum, and plasma
Experimental: Aqueous peptide solutions (3 g/L) were filled in a sterile syringe (1 mL, Dispomed Witt oHG, Gelnhausen, Deutschland) through the front end, the stainless-steel needle was attached, and blood (200 to 300 μL) was collected via cardiac puncture to obtain a peptide concentration of approximately 31,5 μmol/L. The syringe was carefully disconnected from the needle and sealed while keeping the needle in the heart. A second empty syringe was attached to the needle and 0.5 to 0.8 mL blood were collected. In parallel, the sealed syringe was gently shaken for one minute to mix the peptide solution with blood and further incubated on a Stuart Rotator SB3 (Barloworld, Scientific LTD, Stone, Staffordshire, U.K.) placed in an incubator at 37°C. […] The plasma sample designated as “blood” (B) was precipitated with trichloroacetic acid (TCA), as described below. Blood collected in the second syringe was transferred to a polypropylene tube (Eppendorf AG, Hamburg, Germany) and a BD Microtainer® serum separator tube (SST; Becton, Dickinson and Company). Polypropylene tubes were centrifuged immediately (12,000 x g, 2 to 4 min) to obtain “direct serum” (DS) as supernatant, whereas the serum separator tubes were incubated (room temperature, 1 h), centrifuged (12,000 x g, 2 min), and collected as “activated serum” (AS). Pooled mouse serum was purchased from PAA Laboratories GmbH (Pasching, Austria) and pooled CD-1 mouse plasma containing K2EDTA or lithium heparin were obtained from Innovative Research (Novi, MI, USA).
Peptides were mixed with serum or plasma to a final concentration of 31.5 μmol/L and incubated (37°C, 750 rpm; Thermomixer, Eppendorf AG, Hamburg, Germany). Aliquots (20 or 40 μL) taken after 0 and 60 min (0, 10 and 30 min for Api88) were mixed with TCA to obtain a final concentration of 3% (w/v) and incubated on ice (10 min). After centrifugation (12,000 x g, 5 min), the supernatant was neutralized with sodium hydroxide (1 mol/L) and stored at −20°C. Samples were analyzed by RP-HPLC on a Jupiter C18-column (internal diameter: 2 mm, length: 150 mm, particle size: 5 μm, pore size: 30 nm) using a linear aqueous acetonitrile gradient containing TFA (0.1%, v/v) as ion pair reagent. Peptides were detected by recording the absorbance at 214 nm and quantified by their peak areas relative to the initial peak areas (0 min). All stability tests were performed at least in triplicates.
Metabolites were identified on an Agilent 1100 LC system (Agilent Technologies, Santa Clara, CA, USA) coupled on-line via a UV-detector (absorbance recorded at 214 nm) to the electrospray ionization source on an ion trap mass spectrometer (ESI-IT-MS, Esquire HCT, Bruker Daltonics GmbH, Bremen, Germany). Samples were separated on an Aqua C18-column (inner diameter: 2 mm, length: 150 mm, particle size: 3 μm, pore size: 12.5 nm, Phenomenex; column temperature: 60°C) at a flow rate of 0.2 mL/min using a linear gradient of aqueous acetonitrile in the presence of formic acid (FA; 0.1%, v/v) as ion pair reagent. […] The ESI-IT-MS was operated in positive ion mode. Ionization was carried out at 365°C (source temperature) using nitrogen as curtain gas (40 psi) and dry gas (9 L/min). Mass spectra were acquired for an m/z range from 400 to 1300 at a scan rate of 8100 m/z-units per second in standard enhanced mode.

[4] = molecular target: T1, human α-thrombin (Homo sapiens, UniProt P00734); assay: α-Thrombin stability assay; assay type: in vitro ADME; details: cleavage C-terminal to Arg4; 0, 1, and 24 hours
T1 construct: with human α-Thrombin for 0, 1, and 24 hours
Experimental: Supplementary file pone.0178943.s003.tif: S3 Fig Stability of Api88, Api137, and LVPR-Onc112 against human α-thrombin. Chromatograms recorded after incubation of Api88 (a), Api137 (b), or LVPR-Onc112 (c) with human α-Thrombin for 0, 1, and 24 hours (UV absorbance). […] (TIF) Click here for additional data file.
S1 Text. Method α-Thrombin stability assay.

[5] = Peptide stability in fresh blood taken by cardiac puncture into a syringe containing the peptide (blood, B); assay type: in vitro ADME, CD-1 mice; details: blood, 1 h
Experimental: as §1

[6] = system: thrombin; parameters: method as in PMID 18665823; details: recalcified citrated plasma; cited from earlier work
[7] = intravenous application in mice; cited from earlier work
[8] = Peptide stability in activated serum (AS); assay type: in vitro ADME, CD-1 mice; details: 37°C, 1 h, 31.5 μmol/L
Experimental: as §1

[9] = Peptide stability in direct serum (DS); assay type: in vitro ADME, CD-1 mice; details: 37°C, 1 h, 31.5 μmol/L
Experimental: as §1

[10] = mouse serum; cited from earlier work
[11] = Peptide stability in EDTA plasma (EP); assay type: in vitro ADME, CD-1 mouse; details: 37°C, 1 h, 31.5 μmol/L
Experimental: as §1

[12] = Peptide stability in heparin plasma (HP); assay type: in vitro ADME, CD-1 mouse; details: 37°C, 1 h, 31.5 μmol/L
Experimental: as §1

prodrug expected to be present in full serum ([1]; extrapolated from 25% serum data assuming three-fold faster degradation in full serum): 14% | sum of prodrug and released Onc112 relative to initial amount ([3]; all matrices except for blood, 1 h): ~100% | Overall stability [3]: Low | Sequential stability [3]: Blood > Serum > Plasma | hydrolysis by thrombin compared with Api88 [4]: slower | remaining at 1 h ([5]; CD-1, mouse, fresh whole blood, 37°C, 31.5 μmol/L, read-out: intact peptide remaining relative to time zero): 67 ± 4% | sum of prodrug and released Onc112 relative to initial amount [5]: 85%
Compound: CC[C@H](C)[C@H](NC(=O)[C@@H](CCCNC(=N)N)NC(=O)[C@H](CCCNC(=N)N)NC(=O)[C@@H]1CCCN1C(=O)[C@@H]1CCCN1C(=O)[C@H](CCCNC(=N)N)NC(=O)[C@@H]1CCCN1C(=O)[C@H](CCCNC(=N)N)NC(=O)[C@@H]1CCCN1C(=O)[C@H](CC(C)C)NC(=O)[C@H](Cc1ccc(O)cc1)NC(=O)[C@@H]1CCCN1C(=O)[C@@H]1CCCN1C(=O)[C@H](CCCCN)NC(=O)[C@H](CC(=O)O)NC(=O)[C@@H](NC(=O)[C@H](CCCNC(=N)N)NC(=O)[C@@H]1CCCN1C(=O)[C@@H](NC(=O)[C@@H](N)CC(C)C)C(C)C)C(C)C)C(=O)N[C@@H](Cc1ccc(O)cc1)C(=O)N[C@@H](CC(N)=O)C(=O)N[C@H](CCCNC(=N)N)C(N)=O [LVPR-Onc112, LVPRVDKPPYLPRPRPPRrIYNr-NH2] (H-LVPRVDKPPYLPRPRPPR[dR]IYN[dR]-NH2)
Onc112 released from linker peptide [2]: 57%

Compound: heparin
thrombin reactivated in presence of the anticoagulant [6]: 0.06 U/mL

metabolised at 1 h, 31.5 μmol/L ([1]; mouse, commercial pooled serum, commercial serum, 1 hour, read-out: peptide degraded): < 2% | intact peptide remaining relative to time zero [8]: at least 96% | intact peptide remaining relative to time zero [9]: at least 96% | Matrix in which the metabolite was identified ([3]; LC-MS, peak area at least 1% of initially incubated peptide, B blood, DS direct serum, AS activated serum, CS commercial serum, EP EDTA plasma, HP heparin plasma, All = all six): All | Overall stability [3]: High | Sequential stability [3]: Blood = Plasma = Serum | intact peptide remaining relative to time zero ([5]; 37°C, 31.5 μmol/L): at least 96% | intact peptide remaining relative to time zero [11]: at least 96% | intact peptide remaining relative to time zero [12]: at least 96%
Compound: CC[C@H](C)[C@H](NC(=O)[C@@H](CCCNC(=N)N)NC(=O)[C@H](CCCNC(=N)N)NC(=O)[C@@H]1CCCN1C(=O)[C@@H]1CCCN1C(=O)[C@H](CCCNC(=N)N)NC(=O)[C@@H]1CCCN1C(=O)[C@H](CCCNC(=N)N)NC(=O)[C@@H]1CCCN1C(=O)[C@H](CC(C)C)NC(=O)[C@H](Cc1ccc(O)cc1)NC(=O)[C@@H]1CCCN1C(=O)[C@@H]1CCCN1C(=O)[C@H](CCCCN)NC(=O)[C@H](CC(=O)O)NC(=O)[C@@H](N)C(C)C)C(=O)N[C@@H](Cc1ccc(O)cc1)C(=O)N[C@@H](CC(N)=O)C(=O)N[C@H](CCCNC(=N)N)C(N)=O [Onc112, VDKPPYLPRPRPPRrIYNr-NH2] (H-VDKPPYLPRPRPPR[dR]IYN[dR]-NH2)
plasma levels relative to Onc72 [7]: around fivefold | serum half-life time [10]: more than 8 h

Compound: O=C(O)CN(CCN(CC(=O)O)CC(=O)O)CC(=O)O [EDTA, ethylenediaminetetraacetic acid]
thrombin reactivated in presence of the anticoagulant [6]: 0.39 U/mL
